By inhibition is commonly meant the relative decrease from the control value, in per cent. Usually IC50 stands for the concentration at which inhibition is half-maximal. The low end stands for greater potency in that assay, the high end for weaker potency in that assay.

This note sets out measurements from US8217060B2, “Benzimidazole derivatives useful as TRP M8 receptor modulators” (Janssen Pharmaceutica, NV, priority 2009, dated 2012).

Structures can show the parent of a compound that is named as a salt.

This assay concerns the target T1, canine TRPM8 (Canis lupus familiaris, UniProt Q1A7N1).
T1 construct: expressed in transfected cells
Kind of assay: In Vitro Canine TRPM8 Functional Assay (icilin-induced intracellular Ca2+ fluorescence, FLIPR/FDSS). The assay is classed as cell-based. Conditions: HEK293 cells stably expressing canine TRPM8; for inhibition at 0.2 µM: 0.2 μM test compound, icilin challenge; for IC50: icilin challenge (~80% maximal response), eight-point dose-response. As to the method: The functional activity of representative compounds of the formula (I) of the present invention were measured by measuring changes in intracellular calcium concentration using a Ca^2+-sensitive fluorescent dye. The changes in fluorescent signal were monitored by a fluorescence plate reader, either a FLIPR™ (Molecular Devices) or FDSS (Hamamatsu).
HEK293 cells stably expressing canine TRPM8 were routinely grown as monolayers in Dulbecco's minimum essential medium supplemented with 10% FBS, 2 mM L-glutamine, 100 units/mL penicillin, 100 ug/mL streptomycin and 400 μg/mL G418. Cells were maintained in 5% CO2 at 37° C. At 24 hrs prior to assay, cells were seeded in black wall, clear-base poly-D-lysine coated 384-well plates (BD Biosciences, NJ, USA) at a density of 5,000 cells per well in culture medium and grown overnight in 5% CO2 at 37° C. On assay day, growth media was removed and cells were loaded with Calcium 3 Dye (Molecular Devices) for 35 min at 37° C., under 5% CO2 and then for 25 min at room temperature and atmosphere. Subsequently, cells were tested for agonist-induced increases in intracellular Ca^2+ levels using FLIPR™ or FDSS. Cells were challenged with compounds of the formula (I) (at varying concentrations) and intracellular Ca^2+ was measured for 5 min prior to the addition of icilin to all wells to achieve a final concentration that produces approximately an 80% maximal response.
Basal FI was subtracted prior to normalizing data to percent of maximal response. Curves were generated using the average of quadruplicate wells for each data point, were analyzed using nonlinear regression of either sigmoidal dose response or sigmoidal dose response (variable slope). Finally, the EC50 and IC50 values were calculated with the best-fit dose curve determined by GraphPad Prism

T1 sequence (Q1A7N1 1-1104): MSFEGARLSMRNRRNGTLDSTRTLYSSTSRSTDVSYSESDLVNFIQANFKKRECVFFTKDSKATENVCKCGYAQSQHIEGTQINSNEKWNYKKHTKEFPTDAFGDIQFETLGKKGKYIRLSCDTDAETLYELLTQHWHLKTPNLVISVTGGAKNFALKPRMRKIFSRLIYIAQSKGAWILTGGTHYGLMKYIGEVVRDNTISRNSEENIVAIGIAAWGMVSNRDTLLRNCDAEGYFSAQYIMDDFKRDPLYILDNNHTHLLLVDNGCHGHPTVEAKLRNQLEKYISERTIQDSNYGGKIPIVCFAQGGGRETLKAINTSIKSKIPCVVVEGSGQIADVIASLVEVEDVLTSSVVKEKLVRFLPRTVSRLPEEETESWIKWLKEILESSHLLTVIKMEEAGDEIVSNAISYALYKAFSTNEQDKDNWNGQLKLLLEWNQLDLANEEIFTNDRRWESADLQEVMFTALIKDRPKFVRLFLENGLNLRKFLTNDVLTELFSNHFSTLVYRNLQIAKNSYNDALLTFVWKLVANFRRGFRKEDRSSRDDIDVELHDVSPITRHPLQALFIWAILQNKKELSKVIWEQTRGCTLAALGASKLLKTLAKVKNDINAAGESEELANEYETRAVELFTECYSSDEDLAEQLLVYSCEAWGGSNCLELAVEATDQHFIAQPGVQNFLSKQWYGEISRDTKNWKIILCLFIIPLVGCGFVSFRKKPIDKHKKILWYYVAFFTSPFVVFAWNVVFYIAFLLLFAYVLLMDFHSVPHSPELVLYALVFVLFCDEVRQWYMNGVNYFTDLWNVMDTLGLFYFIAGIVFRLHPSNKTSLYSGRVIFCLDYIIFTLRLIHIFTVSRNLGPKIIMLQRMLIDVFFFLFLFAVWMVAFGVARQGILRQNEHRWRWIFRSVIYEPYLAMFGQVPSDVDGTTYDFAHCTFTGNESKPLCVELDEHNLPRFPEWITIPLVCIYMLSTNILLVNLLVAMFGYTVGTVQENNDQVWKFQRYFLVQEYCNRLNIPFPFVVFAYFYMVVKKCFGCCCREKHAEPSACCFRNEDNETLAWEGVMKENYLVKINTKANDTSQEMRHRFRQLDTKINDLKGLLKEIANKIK

On to `C(=CC1CCCCC1)c1nc2cc(-c3ccccc3)ccc2[nH]1` [Compound 2, 2-(2-Cyclohexyl-vinyl)-5-phenyl-1H-benzimidazole], for which the inhibition at 0.2 µM is 96% and the IC50 was 110 nM.

For `Cc1ccccc1-c1ccc2[nH]c(C=CC3CCCCC3)nc2c1` [Compound 3, 2-(2-Cyclohexyl-vinyl)-5-o-tolyl-1H-benzimidazole], the inhibition at 0.2 µM came out at 103% and inhibition was half-maximal at 7 nM (IC50).

Turning to `FC(F)(F)COc1ccccc1-c1ccc2[nH]c(C=CC3CCCCC3)nc2c1` [Compound 4, 2-(2-Cyclohexyl-vinyl)-5-[2-(2,2,2-trifluoro-ethoxy)-phenyl]-1H-benzimidazole], the inhibition at 0.2 µM was 103% and the IC50 is 3 nM.

Consider `Oc1cccc(-c2ccc3[nH]c(C=CC4CCCCC4)nc3c2)c1` [Compound 5, 3-[2-(2-Cyclohexyl-vinyl)-1H-benzimidazol-5-yl]-phenol], for which the inhibition at 0.2 µM was 18%.

As for `OCc1ccccc1-c1ccc2[nH]c(/C=C/C3CCCCC3)nc2c1` [Compound 6], the inhibition at 0.2 µM worked out at 103% and the IC50 was 12 nM.

With `CC1(c2ccccc2-c2ccc3[nH]c(C=CC4CCCCC4)nc3c2)OCCO1` [Compound 7, 2-(2-Cyclohexyl-vinyl)-5-[2-(2-methyl-[1,3]dioxolan-2-yl)-phenyl]-1H-benzimidazole], the inhibition at 0.2 µM turned out to be 103% and inhibition was half-maximal at 34 nM (IC50).

For the compound `CC(=O)c1ccccc1-c1ccc2[nH]c(C=CC3CCCCC3)nc2c1` [Compound 8, 1-{2-[2-(2-Cyclohexyl-vinyl)-1H-benzimidazol-5-yl]-phenyl}-ethanone], the inhibition at 0.2 µM came to 97% and the IC50 stood at 41 nM.

For `Fc1ccc(Cl)c(-c2ccc3[nH]c(C=CC4CCCCC4)nc3c2)c1` [Compound 9, 5-(2-Chloro-5-fluoro-phenyl)-2-(2-cyclohexyl-vinyl)-1H-benzimidazole], the inhibition at 0.2 µM amounted to 101% and the IC50 turned out to be 11 nM.

With `Fc1cccc(Cl)c1-c1ccc2[nH]c(C=CC3CCCCC3)nc2c1` [Compound 10, 5-(2-Chloro-6-fluoro-phenyl)-2-(2-cyclohexyl-vinyl)-1H-benzimidazole], the inhibition at 0.2 µM came out at 101% and the half-maximal inhibitory concentration (IC50) worked out at 6 nM.

Turning to `COc1cccc(F)c1-c1ccc2[nH]c(C=CC3CCCCC3)nc2c1` [Compound 11, 2-(2-Cyclohexyl-vinyl)-5-(2-fluoro-6-methoxy-phenyl)-1H-benzimidazole], the inhibition at 0.2 µM was 102% and the midpoint of inhibition, the IC50, lay at 32 nM.

With `COc1cc(F)ccc1-c1ccc2[nH]c(C=CC3CCCCC3)nc2c1` [Compound 12, 2-(2-Cyclohexyl-vinyl)-5-(4-fluoro-2-methoxy-phenyl)-1H-benzimidazole], the inhibition at 0.2 µM stood at 92% and the IC50 turned out to be 39 nM.

In the case of `COc1cccc(OC)c1-c1ccc2[nH]c(C=CC3CCCCC3)nc2c1` [Compound 14, 2-(2-Cyclohexyl-vinyl)-5-(2,6-dimethoxy-phenyl)-1H-benzimidazole], the inhibition at 0.2 µM worked out at 95% and 2 nM corresponded to half-maximal inhibition (IC50).

For the compound `Fc1cccc(F)c1-c1ccc2[nH]c(C=CC3CCCCC3)nc2c1` [Compound 15, 2-(2-Cyclohexyl-vinyl)-5-(2,6-difluoro-phenyl)-1H-benzimidazole], the inhibition at 0.2 µM worked out at 102% and the IC50 was found to be 28 nM.

As to `Fc1ccccc1-c1ccc2[nH]c(C=CC3CCCCC3)nc2c1` [Compound 16, 2-(2-Cyclohexyl-vinyl)-5-(2-fluoro-phenyl)-1H-benzimidazole], the inhibition at 0.2 µM turned out to be 102% and half-maximal inhibition (IC50) required 14 nM.

Turning to `Cc1ccsc1-c1ccc2[nH]c(C=CC3CCCCC3)nc2c1` [Compound 17, 2-(2-Cyclohexyl-vinyl)-5-(3-methyl-thiophen-2-yl)-1H-benzimidazole], the inhibition at 0.2 µM was found to be 102% and the IC50 is 17 nM.

In the case of `COc1ccc(Cl)c(-c2ccc3[nH]c(C=CC4CCCCC4)nc3c2)c1` [Compound 18, 5-(2-Chloro-5-methoxy-phenyl)-2-(2-cyclohexyl-vinyl)-1H-benzimidazole], the inhibition at 0.2 µM came out at 101% and the IC50 was 32 nM.

Take `Clc1ccc(Cl)c(-c2ccc3[nH]c(C=CC4CCCCC4)nc3c2)c1` [Compound 19, 2-(2-Cyclohexyl-vinyl)-5-(2,5-dichloro-phenyl)-1H-benzimidazole]: the inhibition at 0.2 µM is 86% and the IC50 amounted to 34 nM.

Turning to `COc1ccc(Cl)cc1-c1ccc2[nH]c(C=CC3CCCCC3)nc2c1` [Compound 20, 5-(5-Chloro-2-methoxy-phenyl)-2-(2-cyclohexyl-vinyl)-1H-benzimidazole], the inhibition at 0.2 µM is 85% and the IC50 was 53 nM.

`Fc1ccc(F)c(-c2ccc3[nH]c(C=CC4CCCCC4)nc3c2)c1` [Compound 22, 2-(2-Cyclohexyl-vinyl)-5-(2,5-difluoro-phenyl)-1H-benzimidazole]: the inhibition at 0.2 µM came out at 101% and the IC50 is 31 nM.

For `Fc1ccccc1-c1ccc2[nH]c(C=CC3CCCC3)nc2c1` [Compound 24, 2-(2-Cyclopentyl-vinyl)-5-(2-fluoro-phenyl)-1H-benzimidazole], the inhibition at 0.2 µM amounted to 85% and the IC50 is 97 nM.

Turning to `Cc1ccsc1-c1ccc2[nH]c(C=CC3CCCC3)nc2c1` [Compound 25, 2-(2-Cyclopentyl-vinyl)-5-(3-methyl-thiophen-2-yl)-1H-benzimidazole], the inhibition at 0.2 µM came out at 102% and the IC50 came out at 13 nM.

For `FC(F)(F)Oc1ccccc1-c1ccc2nc(C=CC3CCCC3)[nH]c2c1` [Compound 26, 2-(2-Cyclopentyl-vinyl)-5-(2-trifluoromethoxy-phenyl)-1H-benzimidazole], the inhibition at 0.2 µM was found to be 100% and the IC50 was 33 nM.

Regarding `N#Cc1ccccc1-c1ccc2[nH]c(C=CC3CCCC3)nc2c1` [Compound 27, 2-[2-(2-Cyclopentyl-vinyl)-1H-benzimidazol-5-yl]-benzonitrile], the inhibition at 0.2 µM is 100% and the IC50 turned out to be 47 nM.

With `OCc1ccccc1-c1ccc2[nH]c(C=CC3CCCC3)nc2c1` [Compound 28, {2-[2-(2-Cyclopentyl-vinyl)-1H-benzimidazol-5-yl]-phenyl}-methanol], the inhibition at 0.2 µM was found to be 95% and half-maximal inhibition (IC50) required 42 nM.

Take `CC(=O)c1ccccc1-c1ccc2[nH]c(C=CC3CCCC3)nc2c1` [Compound 29, 1-{2-[2-(2-Cyclopentyl-vinyl)-1H-benzimidazol-5-yl]-phenyl}-ethanone]: the inhibition at 0.2 µM stood at 77% and the IC50 came to 170 nM.

In the case of `FC1=CCC(C=Cc2nc3cc(-c4ccccc4C(F)(F)F)ccc3[nH]2)CC1` (stereo not drawn) [Compound 31, 2-[2-(4-Fluoro-cyclohex-3-enyl)-vinyl]-5-(2-trifluoromethyl-phenyl)-1H-benzimidazole], the inhibition at 0.2 µM is 102% and the IC50 worked out at 6 nM.

For `FC1=CCC(C=Cc2nc3cc(-c4ccccc4OC(F)(F)F)ccc3[nH]2)CC1` (stereo not drawn) [Compound 32, 2-[2-(4-Fluoro-cyclohex-3-enyl)-vinyl]-5-(2-trifluoromethoxy-phenyl)-1H-benzoimidazole hydrochloride salt], the inhibition at 0.2 µM turned out to be 101% and 5.2 nM corresponded to half-maximal inhibition (IC50).

Regarding `COc1ccc(F)cc1-c1ccc2[nH]c(C=CC3CC=C(F)CC3)nc2c1` (stereo not drawn) [Compound 33, 2-[2-(4-Fluoro-cyclohex-3-enyl)-vinyl]-5-(5-fluoro-2-methoxy-phenyl)-1H-benzoimidazole hydrochloride salt], the inhibition at 0.2 µM came to 101% and the IC50 was determined as 9 nM.

Consider `FC1=CCC(C=Cc2nc3cc(-c4ccccc4Cl)ccc3[nH]2)CC1` (stereo not drawn) [Compound 34, 5-(2-Chloro-phenyl)-2-[2-(4-fluoro-cyclohex-3-enyl)-vinyl]-1H-benzoimidazole hydrochloride salt], for which the inhibition at 0.2 µM was found to be 101% and the IC50 worked out at 5 nM.

`Cc1cccc(C)c1-c1ccc2[nH]c(C=CC3CC=C(F)CC3)nc2c1` (stereo not drawn) [Compound 35, 5-(2,6-Dimethyl-phenyl)-2-[2-(4-fluoro-cyclohex-3-enyl)-vinyl]-1H-benzoimidazole hydrochloride salt]: the inhibition at 0.2 µM worked out at 100% and the midpoint of inhibition, the IC50, lay at 4 nM.

For the compound `FC1=CCC(C=Cc2nc3cc(-c4ccccc4F)ccc3[nH]2)CC1` (stereo not drawn) [Compound 36, 2-[2-(4-Fluoro-cyclohex-3-enyl)-vinyl]-5-(2-fluoro-phenyl)-1H-benzoimidazole hydrochloride salt], the inhibition at 0.2 µM was determined as 100% and the IC50 amounted to 16 nM.

As for `FC1(F)CCC(C=Cc2nc3cc(-c4ccccc4OC(F)(F)F)ccc3[nH]2)CC1` [Compound 37, 2-[2-(4,4-Difluoro-cyclohexyl)-vinyl]-5-(2-trifluoromethoxy-phenyl)-1H-benzoimidazole hydrochloride salt], the inhibition at 0.2 µM is 100% and it took 8 nM to reach half-maximal inhibition (IC50).
